We go through 1 molecule from ChEMBL document CHEMBL1201862, “PubChem BioAssay data set” (2004).

The structures appear in SMILES notation.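 Where inhibition never reached the appropriate level, the endpoint shown equals the highest concentration tested. Otherwise, values were interpolated linearly from a five-concentration, 48-hour dose response in 96-well plates. The concentration for 50% growth inhibition is given as GI50.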 The source made the active and inactive calls. No stated cut-off is given here; in the data, active = GI50 up to about 1.1 µM and inactive = higher.

Some test systems named below: MDA-N; HCT-15; NCI-H23; KM12; OVCAR-4; HOP-92; 786-0; IGROV-1; HCT-116; OVCAR-3; NCI-H226; SW-620; PC-3; MOLT-4; SNB-19; BT-549; CAKI-1; MDA-MB-231; SF-268; Hs-578T.
Assay in all cases: NCI-60 cell line screen, 48 h

In the case of `C[C@@H](CN1CC(=O)NC(=O)C1)N1CC(=O)NC(=O)C1` [DEXRAZOXANE], the GI50 with MDA-N was 241 µM (inactive); with HCT-15 it was 122 µM; with NCI-H23, 125 µM (inactive); in the assay on KM12 it was 522 µM (inactive); in the assay on OVCAR-4 it was 115 µM (inactive); in the assay with HOP-92, 196 µM (inactive). The GI50 in the assay on 786-0 is 266 µM (inactive); in the assay on IGROV-1, 356 µM (inactive); with HCT-116, 118 µM (inactive); in the assay on OVCAR-3, 224 µM (inactive); in the assay on NCI-H226, 101 µM (inactive); in the assay on SW-620, 57.5 µM (inactive). Moreover, the GI50 in the assay on PC-3 was 180 µM (inactive); with MOLT-4 it was 15.8 µM (inactive); with SNB-19, 279 µM (inactive); in the assay on BT-549 it was 230 µM (inactive); with CAKI-1, 90.6 µM (inactive); in the assay on MDA-MB-231, 168 µM (inactive). Moreover, the GI50 in the assay with SF-268 is 378 µM (inactive); in the assay on Hs-578T, 320 µM (inactive).
